What was measured:
Assay in all cases: relative viability (nuclei count vs DMSO), 5 days (fraction); higher = more cells survive
IMD-0354 + Phenformin = compound: O=C(Nc1cc(C(F)(F)F)cc(C(F)(F)F)c1)c1cc(Cl)ccc1O [IMD-0354] + N=C(N)NC(=N)NCCc1ccccc1 [Phenformin] (partner 250 µM)
Summary of the method: (§1)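 Nuclei were stained with Hoechst during a one-step fixation (final 0.05% Triton X-100, 1% formaldehyde, 1 ug/ml Hoechst) carried out 5 days after dosing, then counted on 4× images. The cells, lung cancer lines in 1536-well plates, had been dosed by pin tool the day after seeding with one drug alone or a fixed anchor-drug dose plus five library-drug doses (not always all listed) in √10 steps. Relative viability is the nuclei count in treated wells divided by that in vehicle wells, and each value is the median of duplicate plates.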

IMD-0354 = compound: O=C(Nc1cc(C(F)(F)F)cc(C(F)(F)F)c1)c1cc(Cl)ccc1O [IMD-0354]
Summary of the method: (§2)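 Cells of lung cancer lines were placed in 1536-well plates and kept overnight at 37 °C. Pinning then delivered five library-drug doses (not always all listed), spaced by √10, onto plates anchored with vehicle, and the cells were left 5 days without changing medium. One step fixed, permeabilised and stained them with Hoechst, and MetaXpress counted nuclei in 4× images. Viability, as a median over plates, is treated-well nuclei divided by vehicle-well nuclei, with acceptance only at control CV below 25% and at least one doubling.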

CX-5461 = compound: Cc1cnc(CNC(=O)c2c(=O)c3ccc(N4CCCN(C)CC4)nc3n3c2sc2ccccc23)cn1 [CX-5461]
Summary of the method: as §2

CX-5461 + Navitoclax = compound: Cc1cnc(CNC(=O)c2c(=O)c3ccc(N4CCCN(C)CC4)nc3n3c2sc2ccccc23)cn1 [CX-5461] + CC1(C)CCC(c2ccc(Cl)cc2)=C(CN2CCN(c3ccc(C(=O)NS(=O)(=O)c4ccc(N[C@H](CCN5CCOCC5)CSc5ccccc5)c(S(=O)(=O)C(F)(F)F)c4)cc3)CC2)C1 [Navitoclax] (partner 0.5 µM)
Summary of the method: as §1

Cell Line	relative viability (IMD-0354 + Phenformin; first compound 0.04 µM)	relative viability (IMD-0354 + Phenformin; first compound 0.1265 µM)	relative viability (IMD-0354 + Phenformin; first compound 0.4 µM)	relative viability (IMD-0354 + Phenformin; first compound 1.265 µM)	relative viability (IMD-0354 + Phenformin; first compound 4 µM)	relative viability (IMD-0354; 0.04 µM)	relative viability (IMD-0354; 0.1265 µM)	relative viability (IMD-0354; 0.4 µM)	relative viability (IMD-0354; 1.265 µM)	relative viability (IMD-0354; 4 µM)	relative viability (CX-5461; 0.01 µM)	relative viability (CX-5461; 0.03162 µM)	relative viability (CX-5461; 0.1 µM)	relative viability (CX-5461; 1 µM)	relative viability (CX-5461 + Navitoclax; first compound 0.01 µM)	relative viability (CX-5461 + Navitoclax; first compound 0.03162 µM)	relative viability (CX-5461 + Navitoclax; first compound 0.1 µM)	relative viability (CX-5461 + Navitoclax; first compound 0.3162 µM)	relative viability (CX-5461 + Navitoclax; first compound 1 µM)	relative viability (CX-5461; 0.3162 µM)
NCI-H522	0.614	0.666	0.464	0.61	0.383	0.934	0.848	0.909	0.7	0.406	0.98	0.944	0.946	0.951	–	–	–	–	–	–
HCC-15	0.466	0.37	0.188	0.0833	0.165	0.949	0.935	0.663	0.16	0.15	1.01	1.08	0.978	0.689	0.725	0.773	0.713	0.717	0.656	0.833
A-427	0.379	0.209	0.247	0.105	0.112	1.26	1.01	0.434	0.153	0.134	1.06	1.1	1.06	0.748	1.05	1.06	0.961	–	0.979	–
NCI-H2228	0.372	0.224	0.233	0.084	0.165	1.07	0.888	0.721	0.266	0.294	1.03	1.01	0.948	0.205	0.822	0.572	0.513	0.552	0.0937	0.855
NCI-H1734	0.393	0.284	0.257	0.165	0.129	1.09	0.969	0.731	0.306	0.142	1.02	1.05	1	0.579	0.979	0.896	0.887	0.728	0.761	0.694
SK-LU-1	0.713	0.413	0.303	0.193	0.187	1.16	0.97	0.581	0.488	0.277	1.08	1.07	1.04	0.736	0.792	0.972	0.718	0.808	0.23	1.07
PC-14	0.817	0.59	0.221	0.107	0.112	1.18	1.05	0.52	0.317	0.129	1.08	1.04	0.956	0.599	1.18	1.06	1.03	0.974	0.979	1.01
NCI-H1915	0.37	0.31	0.26	0.182	0.156	0.824	1.02	0.675	0.316	0.165	1.06	1.13	0.996	0.899	0.799	0.784	0.809	0.743	0.758	0.79
NCI-H1666	0.592	0.558	0.476	0.384	0.254	0.954	0.922	0.82	0.611	0.523	0.985	0.992	0.949	0.808	0.967	1	–	0.766	0.397	0.904
HCC-366	0.574	0.562	0.276	0.0732	0.0339	1.04	1.09	0.543	0.111	0.0465	1.11	1.02	1	0.322	1.04	1.06	1.16	1.1	1.11	1.02
LK-2	0.641	0.382	0.41	0.22	0.265	1.19	0.986	–	1	0.271	0.89	1.07	1.13	0.783	–	0.984	0.939	0.319	0.904	–
NCI-H661	0.268	0.249	0.224	0.198	0.232	0.999	0.955	0.646	0.291	0.305	1.04	0.978	1.02	0.835	–	–	–	–	–	0.626
PC-3 [JPC-3]	0.508	0.449	0.459	0.264	0.291	1.06	1.03	0.829	0.341	0.306	1.03	1.05	1.11	0.974	0.86	0.861	0.746	0.784	0.821	1.01
NCI-H1623	0.565	0.621	0.459	0.364	0.385	0.962	1	1.02	0.992	0.451	1.18	0.979	0.904	0.94	–	–	–	–	–	0.674
